According to ChEMBL document CHEMBL5108009, “Positron Emission Tomography (PET) Imaging Tracers for Serotonin Receptors” (J Med Chem, 2022):

Columns and labels:
[1] = target: T1, 5-hydroxytryptamine receptor 7 (Homo sapiens, UniProt P34969); assay: Binding affinity to 5-HT7 receptor (unknown origin) assessed as inhibition constant
[2] = target: D(4) dopamine receptor (Homo sapiens, UniProt P21917); assay: Binding affinity to D4 receptor (unknown origin) assessed as inhibition constant
[3] = target: T2, 5-hydroxytryptamine receptor 1A (Homo sapiens, UniProt P08908)
T2 sequence (P08908 whole entry): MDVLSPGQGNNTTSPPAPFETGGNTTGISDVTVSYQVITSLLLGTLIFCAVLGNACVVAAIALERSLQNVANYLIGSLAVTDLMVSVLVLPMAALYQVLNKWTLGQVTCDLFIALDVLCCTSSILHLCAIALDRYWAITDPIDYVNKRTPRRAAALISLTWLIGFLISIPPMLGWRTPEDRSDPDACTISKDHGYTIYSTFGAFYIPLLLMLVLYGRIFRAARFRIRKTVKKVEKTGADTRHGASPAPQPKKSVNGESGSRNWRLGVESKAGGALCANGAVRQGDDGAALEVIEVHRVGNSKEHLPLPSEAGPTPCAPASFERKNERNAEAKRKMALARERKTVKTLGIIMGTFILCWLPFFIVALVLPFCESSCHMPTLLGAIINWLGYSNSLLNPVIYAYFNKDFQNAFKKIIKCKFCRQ

[4] = target: T3, Alpha-1A adrenergic receptor (Homo sapiens, UniProt P35348); assay: Binding affinity to alpha 1A adrenergic receptor (unknown origin) assessed as inhibition constant
T3 sequence (P35348 whole entry): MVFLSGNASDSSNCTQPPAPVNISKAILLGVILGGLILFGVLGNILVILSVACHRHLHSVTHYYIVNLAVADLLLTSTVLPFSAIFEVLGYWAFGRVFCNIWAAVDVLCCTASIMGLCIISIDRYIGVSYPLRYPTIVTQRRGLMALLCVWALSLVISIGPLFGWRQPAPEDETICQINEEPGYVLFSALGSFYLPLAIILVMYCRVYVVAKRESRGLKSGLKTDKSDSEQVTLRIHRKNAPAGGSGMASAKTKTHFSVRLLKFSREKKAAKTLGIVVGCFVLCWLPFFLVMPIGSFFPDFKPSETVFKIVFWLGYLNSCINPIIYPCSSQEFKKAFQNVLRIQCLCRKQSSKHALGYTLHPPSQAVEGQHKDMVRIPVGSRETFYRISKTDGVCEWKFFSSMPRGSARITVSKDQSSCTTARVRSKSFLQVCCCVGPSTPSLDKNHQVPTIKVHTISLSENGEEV

[5] = target: T4, 5-hydroxytryptamine receptor 1A (Rattus norvegicus, UniProt P19327); assay: Displacement of [3H]-8-OH-DPAT from rat hippocampal membrane 5HT1A receptor by CEREP assay; type: cell membranes, Hippocampus
T4 sequence (P19327 whole entry): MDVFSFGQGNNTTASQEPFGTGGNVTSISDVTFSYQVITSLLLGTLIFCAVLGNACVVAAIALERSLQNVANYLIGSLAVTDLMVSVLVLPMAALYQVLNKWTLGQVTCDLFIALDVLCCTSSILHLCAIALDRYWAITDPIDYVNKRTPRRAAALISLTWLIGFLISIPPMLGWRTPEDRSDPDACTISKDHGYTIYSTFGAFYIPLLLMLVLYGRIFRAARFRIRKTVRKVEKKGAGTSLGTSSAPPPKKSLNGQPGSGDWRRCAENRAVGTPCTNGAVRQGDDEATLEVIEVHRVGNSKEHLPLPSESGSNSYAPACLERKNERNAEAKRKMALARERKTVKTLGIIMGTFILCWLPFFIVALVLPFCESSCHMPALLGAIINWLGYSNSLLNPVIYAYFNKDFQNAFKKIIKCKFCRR

[6] = target: Alpha-1A adrenergic receptor (Homo sapiens) (UniProt P35348); assay: Binding affinity to alpha 1A adrenergic receptor (unknown origin); details: filed as antagonist
[7] = target: 5-hydroxytryptamine receptor 2B (Homo sapiens, UniProt P41595); assay: Binding affinity to 5-HT2B receptor (unknown origin) assessed as inhibition constant
Chain of 5-hydroxytryptamine receptor 2B (P41595 whole entry): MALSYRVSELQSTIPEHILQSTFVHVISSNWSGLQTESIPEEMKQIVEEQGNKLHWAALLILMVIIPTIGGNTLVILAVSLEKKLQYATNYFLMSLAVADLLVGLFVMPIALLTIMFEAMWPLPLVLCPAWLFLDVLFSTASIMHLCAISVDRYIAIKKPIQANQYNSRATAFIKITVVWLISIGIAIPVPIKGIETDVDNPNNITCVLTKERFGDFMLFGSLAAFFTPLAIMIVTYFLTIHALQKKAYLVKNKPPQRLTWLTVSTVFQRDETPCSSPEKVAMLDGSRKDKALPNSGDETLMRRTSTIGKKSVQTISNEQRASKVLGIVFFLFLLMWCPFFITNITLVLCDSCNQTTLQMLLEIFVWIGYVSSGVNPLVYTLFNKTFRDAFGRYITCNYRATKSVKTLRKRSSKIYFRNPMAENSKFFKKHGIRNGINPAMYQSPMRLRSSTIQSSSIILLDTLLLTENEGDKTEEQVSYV

[8] = target: 5-hydroxytryptamine receptor 1D (Homo sapiens, UniProt P28221); assay: Binding affinity to 5-HT1D receptor (unknown origin) assessed as inhibition constant
Chain of 5-hydroxytryptamine receptor 1D (P28221 whole entry): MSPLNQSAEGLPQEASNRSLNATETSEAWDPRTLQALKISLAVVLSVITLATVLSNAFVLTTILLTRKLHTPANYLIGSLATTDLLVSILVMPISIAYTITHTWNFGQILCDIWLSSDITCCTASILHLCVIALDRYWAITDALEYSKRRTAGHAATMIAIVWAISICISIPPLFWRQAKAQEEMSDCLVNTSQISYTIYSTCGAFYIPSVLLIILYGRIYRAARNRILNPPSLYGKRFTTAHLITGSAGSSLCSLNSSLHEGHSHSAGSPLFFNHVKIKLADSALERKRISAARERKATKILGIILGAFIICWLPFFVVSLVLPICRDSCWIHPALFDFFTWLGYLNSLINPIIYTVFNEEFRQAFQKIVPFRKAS

[9] = Drug uptake in cynomolgus monkey brain treated with WAY-100635 followed by compound 230 Ci/mmol, iv measured at 2.5 mins postinjection by PET imaging relative to control; type: ADME, organism-based, Macaca fascicularis; details: in vivo
[10] = target: 5-hydroxytryptamine receptor 2A (Homo sapiens, UniProt P28223); assay: Binding affinity to human 5-HT2A transfected in human tsA201 cells assessed as inhibition constant incubated for 2 hrs by scintillation counter analysis; type: cell-based
Chain of 5-hydroxytryptamine receptor 2A (P28223 whole entry): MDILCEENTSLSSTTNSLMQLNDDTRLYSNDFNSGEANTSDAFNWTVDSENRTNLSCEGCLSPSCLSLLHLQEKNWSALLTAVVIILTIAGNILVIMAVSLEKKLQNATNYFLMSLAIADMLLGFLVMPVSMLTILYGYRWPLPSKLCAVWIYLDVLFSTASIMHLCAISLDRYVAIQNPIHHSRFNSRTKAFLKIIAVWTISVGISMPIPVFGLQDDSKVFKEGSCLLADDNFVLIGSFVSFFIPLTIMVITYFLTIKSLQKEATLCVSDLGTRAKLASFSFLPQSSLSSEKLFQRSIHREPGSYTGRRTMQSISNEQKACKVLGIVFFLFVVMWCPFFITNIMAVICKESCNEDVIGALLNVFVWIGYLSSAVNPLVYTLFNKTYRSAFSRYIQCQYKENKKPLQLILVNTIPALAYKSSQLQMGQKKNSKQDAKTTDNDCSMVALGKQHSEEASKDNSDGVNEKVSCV

[11] = target: Serotonin 3 (5-HT3) receptor
Description: Inhibition of 5HT3 receptor (unknown origin)

[12] = Biodistribution in rat assessed as drug uptake measured as percentage of injected dose per gram of tissue relative to control; type: ADME, organism-based; details: in vivo
[13] = Ratio of drug uptake in cynomolgus monkey cingulate gyrus to cerebellum measured at 87.5 mins postinjection; type: ADME, organism-based, Macaca fascicularis; details: in vivo, 1.458 h
[14] = target: T1, 5-hydroxytryptamine receptor 7; assay: Binding affinity to human recombinant 5-HT7 receptor assessed as inhibition constant
[15] = Drug metabolism in monkey plasma assessed as unchanged compound at 120 mins postinjection relative to control; type: ADME, organism-based, Macaca mulatta; details: rhesus monkey, read-out: Stability
[16] = target: T2, 5-hydroxytryptamine receptor 1A; assay: Binding affinity to human recombinant 5-HT1A expressed in CHO cells assessed as inhibition constant; type: cell-based
[17] = target: T1, 5-hydroxytryptamine receptor 7; assay: Binding affinity to human recombinant 5-HT7 receptor expressed in CHO cells assessed as inhibition constant; type: cell-based
[18] = target: 5-hydroxytryptamine receptor 1A (Homo sapiens) (UniProt P08908); assay: Binding affinity to 5-HT1A receptor (unknown origin); details: filed as agonist
[19] = Drug biodistribution in rat brain incubated for 30 mins by autoradiographic analysis; type: ADME, organism-based; details: in vivo, 0.5 h
[20] = Ratio of drug uptake in baboon insula to cerebellum; type: ADME, tissue-based, Papio; details: in vivo
[21] = Ratio of drug uptake in baboon cingulate cortex to cerebellum; type: ADME, tissue-based, Papio; details: in vivo
[22] = Ratio of drug uptake in baboon hippocampus to cerebellum; type: ADME, tissue-based, Papio; details: in vivo
[23] = Ratio of drug uptake in Rhesus monkey temporal cortex to cerebellum; type: ADME, tissue-based, Macaca mulatta; details: in vivo
[24] = Ratio of drug uptake in Rhesus monkey frontal cortex to cerebellum; type: ADME, tissue-based, Macaca mulatta, Brain frontal cortex/cerebellum; details: in vivo
[25] = Drug metabolism in Rhesus monkey plasma assessed as unmetabolized compound after 3 hrs by TLC analysis; type: ADME, cell-free, Macaca mulatta; details: read-out: Stability
[26] = Ratio of drug uptake in Rhesus monkey raphe to cerebellum; type: ADME, tissue-based, Macaca mulatta; details: in vivo
[27] = target: T1, 5-hydroxytryptamine receptor 7; assay: Binding affinity to human 5-HT7 receptor expressed in HEK293 cells incubated for 1 hr by 96 microwell plate; type: cell-based; details: filed as agonist

T1 sequence (P34969 whole entry): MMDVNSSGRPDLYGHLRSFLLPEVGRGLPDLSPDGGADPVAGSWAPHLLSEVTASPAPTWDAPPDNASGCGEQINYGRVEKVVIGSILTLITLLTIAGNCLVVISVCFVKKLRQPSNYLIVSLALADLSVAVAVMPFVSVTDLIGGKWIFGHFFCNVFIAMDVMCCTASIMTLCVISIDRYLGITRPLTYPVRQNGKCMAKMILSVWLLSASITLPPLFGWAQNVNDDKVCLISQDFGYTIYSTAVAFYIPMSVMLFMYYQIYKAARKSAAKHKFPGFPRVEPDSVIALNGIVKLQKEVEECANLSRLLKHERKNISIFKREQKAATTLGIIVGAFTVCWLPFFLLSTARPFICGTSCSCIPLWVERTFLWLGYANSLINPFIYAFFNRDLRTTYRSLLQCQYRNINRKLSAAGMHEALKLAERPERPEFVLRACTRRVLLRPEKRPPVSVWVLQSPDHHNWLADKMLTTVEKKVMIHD
Chain of D(4) dopamine receptor (P21917 whole entry): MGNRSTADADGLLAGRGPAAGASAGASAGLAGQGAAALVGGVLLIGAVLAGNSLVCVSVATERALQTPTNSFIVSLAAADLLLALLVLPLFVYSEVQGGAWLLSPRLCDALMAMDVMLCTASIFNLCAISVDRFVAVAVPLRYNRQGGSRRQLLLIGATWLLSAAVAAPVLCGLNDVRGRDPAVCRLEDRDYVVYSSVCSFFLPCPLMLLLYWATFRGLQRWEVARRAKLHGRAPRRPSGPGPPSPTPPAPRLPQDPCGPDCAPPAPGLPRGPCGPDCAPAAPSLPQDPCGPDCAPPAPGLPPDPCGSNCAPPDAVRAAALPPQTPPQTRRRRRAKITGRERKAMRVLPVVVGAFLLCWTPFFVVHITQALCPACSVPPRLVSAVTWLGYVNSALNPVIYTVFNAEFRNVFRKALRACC

Q: What does the source list for COc1cccc(N2CCN(CCCCn3ncc(=O)n(C)c3=O)CC2)c1?
A: Ki [1]: 12.9 nM; Ki [2]: 21.8 nM; Ki [3]: 0.15 nM; Ki [4]: 6.75 nM

Q: For COc1ccccc1N1CCN(CCCCn2ccnc2SC)CC1, which IC50 [5] is on record?
A: Its IC50 is 0.58 nM.

Q: And the K [6]?
A: The K was 3 nM.

Q: Which results are given for COc1ccccc1N1CCN(CC[C@@H](C(=O)N2CCCCCC2)c2ccccc2)CC1?
A: Ki [3]: 0.6 nM; Ki [7]: 7.2 nM; Ki [8]: 9.5 nM

Q: With COc1ccccc1N1CCN(CC(C)N(c2ccccn2)[11C](=O)C2CCCCC2)CC1 (racemic) as the molecule, how does the Ki [3] read?
A: The Ki was 0.91 nM.

Q: What about the Drug uptake [9] of the same molecule?
A: The Drug uptake was 4.8%.

Q: For COc1cc(CCNCc2ccccc2OC)c(OCC[18F])cc1Br, which Ki [10] is on record?
A: The Ki was < 1.2 nM.

Q: Which IC50 [11] does the source give for CN1CCN(c2ccc3ccccc3n2)CC1 here?
A: Its IC50 is 4.7 nM.

Q: Which Drug uptake [12] does the source give for COc1ccccc1N1CCN(CCCCN(C)C(=O)c2cnc(S[11CH3])n2C)CC1 here?
A: Its Drug uptake is 0.37 % ID/g.

Q: For [11CH3]Oc1ccccc1N1CCN(CC[C@@H](C(=O)N2CCCCCC2)c2ccccc2)CC1, which Ratio [13] is on record?
A: The Ratio was 6.4.

Q: With COc1cccc(N2CCN(CCCCC3C(=O)Nc4ccccc43)CC2)c1 (stereo not drawn) as the molecule, how does the Ki [14] read?
A: Its Ki is 2.6 nM.

Q: Which remaining at 2 h [15] does the source give for CN1CCN(c2cc(F)cc3c(=O)cc(C(=O)Nc4ccc(N5CCOCC5)c([18F])c4)oc23)CC1 here?
A: Its remaining at 2 h is > 40%.

Q: Which results are given for COc1ccccc1N1CCN(CCC[C@H]2CCCN2S(=O)(=O)c2ccccc2F)CC1?
A: Ki [16]: 4.1 nM; Ki [17]: 1.9 nM

Q: For COc1cc(Br)c(OCC[18F])cc1CCNCc1ccccc1OC, which Ki [10] is on record?
A: Its Ki is < 1.2 nM.

Q: Which Ki [14] does the source give for Cc1ccc(N2CCN(CCCCC3C(=O)Nc4ccccc43)CC2)cc1 (stereo not drawn) here?
A: Its Ki is 1.1 nM.

Q: For COc1ccccc1N1CCN(CC(O)COc2cccc3c2SCCC3)CC1 (stereo not drawn), which K [18] is on record?
A: The K was 5 nM.

Q: For O=S(=O)(c1ccc([18F])cc1)C1CCN(CCc2ccc(F)cc2F)CC1, which Drug uptake [19] is on record?
A: The Drug uptake was > 80%.

Q: What does the source list for Cn1c(=O)cnn(CCCCN2CCN(c3ccccc3O[11CH3])CC2)c1=O?
A: Ratio [20]: > 4.7; Ratio [21]: > 4.7; Ratio [22]: > 4.7

Q: With COc1ccccc1N1CCN(CCN(C(=O)C2CCC(C[18F])CC2)c2ccccn2)CC1 (stereo not drawn) as the molecule, how does the Ratio [23] read?
A: Its Ratio is 10.

Q: What about the Ratio [24] of the same molecule?
A: Its Ratio is 9.

Q: And the remaining at 3 h [25]?
A: The remaining at 3 h was 30%.

Q: What about the Ratio [26] of the same molecule?
A: The Ratio was 3.3.

Q: For COc1ccccc1N1CCN(CCC[C@H]2CCCN2S(=O)(=O)c2ccc(F)cc2)CC1, which Ki [16] is on record?
A: The Ki was 6.8 nM.

Q: And the Ki [17]?
A: Its Ki is 2.6 nM.

Q: For CCn1cncc1-c1c[nH]c2ccc(OC)cc12, which K [27] is on record?
A: Its K is 30 nM.
